From US11332463B2, “Spiropiperidine allosteric modulators of nicotinic acetylcholine receptors” (Merck Sharp & Dohme Corp., priority 2018, dated 2022)
Like-named read-outs stand apart in the source and are kept apart here.

Target: T1, human α7 nicotinic acetylcholine receptor (HEK cell line stably expressing human RIC-3 and human α7) (Homo sapiens, UniProt P36544)
T1 construct: host or cells: HEK cell line (PrecisION hnAChR α7/RIC-3)
Experiment: Automated patch-clamp electrophysiology functional assay (Assay A), IonFlux HT, whole-cell population patch
Assay type: cell-based
Method: The α7 nAChR positive allosteric modulator (PAM) activity of the present compounds may be tested using assays known in the art. […] The assay was performed using the IonFlux HT in a whole-cell, population patch configuration. See Golden et al. Assay Drug Dev. Technol. […] The compounds were assessed for their ability to modulate the function of the human 7 nAChR stably expressed in a HEK cell line both in the presence, and in the absence of the natural 7 agonist acetylcholine. By performing a series of such measurements at different concentrations, the effective concentration of the 7 nAChR PAMs (EC50) was determined. See Spencer et al. Assay Drug Dev. Technol.
Direct activation of α7 (agonism), and potentiation of acetylcholine-evoked 7 currents was determined as follows:
Automated patch-clamp electrophysiology was performed using the IonFlux HT (Fluxion Biosciences Inc., San Francisco, Calif.) in the whole-cell, population patch configuration. Test compounds were assessed for their ability to modulate the function of the α7 nicotinic acetylcholine receptor both in the presence, and in the absence of the natural α7 agonist acetylcholine. […] Immediately prior to assay, cells were detached by first aspirating growth media, rinsing with Dulbecco's phosphate buffered saline, and then adding 10 mL of Accutase (Innovative Cell Technologies, San Diego, Calif.) to the flask and then incubating at 37° C. for 5 minutes. Detached cells were then recovered by the addition of 40 mL of CHO-serum-free media supplemented with 25 mM HEPES, and rocked gently in a 50 mL conical tube for 20 minutes prior to patch-clamp assay. After recovery, cells were pelleted by centrifugation at 1,000 RPM for 1 minute in a compact bench top centrifuge; recovery media was aspirated and cells were resuspended in external recording solution (150 mM NaCl, 5 mM KCl, 2 mM CaCl2), 1 mM MgCl2, 10 mM HEPES, 12 mM dextrose) to a density of 5.0×10^6 cells/mL. The cell suspension was added to the cell inlet wells on an IonFlux HT population patch plate which had previously been rinsed and primed with deionized H2O. Test compounds were serially diluted in DMSO and then resuspended to the final test concentration in external recording solution, with, or without 40 μM acetylcholine added to the external recording solution; test compounds were then transferred to the IonFlux HT population patch plate. Internal recording solution (110 mM TrisPO4, 28 mM TrisBase, 0.1 mM CaCl2, 2 mM MgCl2, 11 mM EGTA, 4 mM MgATP) was added to the internal recording solution inlet wells on the IonFlux HT patch plate previously loaded with cells and test compounds, and the plate loaded into the IonFlux HT instrument. A protocol was executed on the IonFlux HT to trap the cells, break into the cells, and establish the whole-cell recording configuration; cells were voltage-clamped at a holding potential of −60 mV for the duration of the experiment, all experiments were conducted at room temperature, and the IonFlux HT injection pressure was 8 psi for solution applications. Upon establishing the whole-cell configuration, external recording solution was perfused into the recording chambers for 120 seconds and then 40 μM acetylcholine was applied for 1 second and immediately washed off with external recording solution for 60 seconds. The 40 μM acetylcholine-evoked α7 current served as the current response to which subsequent test compound effects, in the presence, or in the absence of 40 μM acetylcholine would be quantified relative to. Next, test compounds were evaluated at multiple concentrations for their ability to induce, or modulate 7 current responses; three concentrations of test compound were evaluated in ascending dose fashion per recording.

[1] = HEK cells expressing human α7/RIC-3, test compound with or without 40 μM acetylcholine, holding potential −60 mV, room temperature, read-out: α7 nAChR Potency
[2] = automated patch-clamp electrophysiology functional assay (Assay A), read-out: α7 nAChR EC50

T1 sequence (P36544 23-502): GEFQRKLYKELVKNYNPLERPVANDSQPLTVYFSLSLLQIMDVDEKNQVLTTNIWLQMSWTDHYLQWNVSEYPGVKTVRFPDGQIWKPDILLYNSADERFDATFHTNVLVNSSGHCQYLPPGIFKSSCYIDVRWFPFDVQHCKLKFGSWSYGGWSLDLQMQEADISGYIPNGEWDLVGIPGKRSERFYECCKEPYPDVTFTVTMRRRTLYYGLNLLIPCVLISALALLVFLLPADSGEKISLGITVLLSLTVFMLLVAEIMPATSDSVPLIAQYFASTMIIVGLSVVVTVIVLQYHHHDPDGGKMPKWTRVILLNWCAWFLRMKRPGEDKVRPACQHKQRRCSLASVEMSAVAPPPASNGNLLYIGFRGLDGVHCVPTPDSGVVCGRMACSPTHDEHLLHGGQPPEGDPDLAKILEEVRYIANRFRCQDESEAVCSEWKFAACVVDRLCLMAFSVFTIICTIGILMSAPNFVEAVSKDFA

Q: How did the EC50 [1] turn out when `COc1ccc(Cl)cc1-c1noc(C2CC23CCN(S(=O)(=O)CC2CCCCO2)CC3)n1` (mixture of isomers) [Example B3] was run?
A: 0.5 to 5 µM

Q: What about the EC50 [2] of the same compound?
A: 1.3 µM

Q: How did the EC50 [1] turn out when `CC(C)C1CC(c2nc([C@@H]3CC34CCN(S(N)(=O)=O)CC4)no2)C1` (mixture of isomers) [Example E3] was run?
A: 0.5 to 5 µM

Q: What about the EC50 [2] of the same compound?
A: 1.9 µM

Q: With `CC1CCCC(c2nc([C@@H]3CC34CCN(S(N)(=O)=O)CC4)no2)C1` (mixture of isomers) [Example E7] as the compound, how does the EC50 [1] read?
A: 0.5 to 5 µM

Q: What about the EC50 [2] of the same compound?
A: 3.4 µM

Q: How did the EC50 [1] turn out when `CC(c1nc([C@@H]2CC23CCN(S(N)(=O)=O)CC3)no1)c1ccccc1Cl` (mixture of isomers) [Example E8] was run?
A: 0.5 to 5 µM

Q: And the EC50 [2]?
A: 3.9 µM

Q: Which results are given for `NS(=O)(=O)N1CCC2(CC1)C[C@H]2c1noc(C2CCCCC23CC3)n1` (mixture of isomers) [Example E11]?
A: EC50 [1]: 0.5 to 5 µM; EC50 [2]: 4.3 µM

Q: Which EC50 [1] does the source give for `NS(=O)(=O)N1CCC2(CC1)C[C@H]2c1noc(C2CCc3c(F)cccc32)n1` (mixture of isomers) [Example E13] here?
A: 0.5 to 5 µM

Q: And the EC50 [2]?
A: 1.3 µM

Q: For `NS(=O)(=O)N1CCC2(CC1)C[C@H]2c1noc(C2CC(c3ccccc3)C2)n1` (mixture of isomers) [Example E15], which EC50 [1] is on record?
A: 0.5 to 5 µM

Q: What about the EC50 [2] of the same compound?
A: 1.5 µM

Q: For `NS(=O)(=O)N1CCC2(C(F)C1)C(c1nc(-c3conc3C3CC3)no1)C2(F)F` (mixture of isomers) [Example I11], which EC50 [1] is on record?
A: 0.5 to 5 µM

Q: What about the EC50 [2] of the same compound?
A: 0.82 µM

Q: For `Cc1ccc(C)c(-c2nc(C3C(F)(F)C34CCN(S(N)(=O)=O)C(C)C4)no2)c1` (mixture of isomers) [Example K2], which EC50 [1] is on record?
A: 0.1 to 0.5 µM

Q: What about the EC50 [2] of the same compound?
A: 0.43 µM

Q: Which EC50 [1] does the source give for `COc1ccc(Cl)cc1-c1noc(C2CC23CCN(S(=O)(=O)Cc2ccccn2)CC3)n1` (racemic) [Example B1] here?
A: 0.5 to 5 µM

Q: What about the EC50 [2] of the same compound?
A: 2.3 µM

Q: `COc1ccc(Cl)cc1-c1noc(C2CC23CCN(S(=O)(=O)c2ccsc2)CC3)n1` (racemic) [Example B2] was tested. Which EC50 [1] did it give?
A: 0.5 to 5 µM

Q: How did the EC50 [1] turn out when `COc1ccc(Cl)cc1-c1noc(C2CC23CCN(S(=O)(=O)c2ccn(C)n2)CC3)n1` (racemic) [Example B4] was run?
A: 0.5 to 5 µM

Q: What about the EC50 [2] of the same compound?
A: 3.2 µM

Q: For `COc1ccc(Cl)cc1-c1noc(C2CC23CCN(S(=O)(=O)CCc2ccccc2)CC3)n1` (racemic) [Example B5], which EC50 [1] is on record?
A: 0.5 to 5 µM

Q: And the EC50 [2]?
A: 3 µM

Q: Which EC50 [1] does the source give for `COc1ccc(Cl)cc1-c1noc(C2CC23CCN(S(=O)(=O)c2cccc4nonc24)CC3)n1` (racemic) [Example B6] here?
A: 0.5 to 5 µM

Q: `COc1ccc(Cl)cc1-c1noc(C2CC23CCN(S(=O)(=O)c2ccc4ncsc4c2)CC3)n1` (racemic) [Example B7] was tested. Which EC50 [1] did it give?
A: 0.5 to 5 µM

Q: And the EC50 [2]?
A: 3.3 µM

Q: How did the EC50 [1] turn out when `COc1ccc(Cl)cc1-c1noc(C2CC23CCN(S(=O)(=O)c2c(O)no[n+]2C)CC3)n1` (racemic) [Example B8] was run?
A: 0.5 to 5 µM

Q: With `COc1ccc(Cl)cc1-c1noc(C2CC23CCN(C(=O)NC(C)(C)C)CC3)n1` (racemic) [Example B9] as the compound, how does the EC50 [1] read?
A: 5 to 50 µM

Q: What about the EC50 [2] of the same compound?
A: 5.4 µM

Q: With `COc1ccc(Cl)cc1-c1noc(C2CC23CCN(C(=O)NC2CCCCC2)CC3)n1` (racemic) [Example B10] as the compound, how does the EC50 [1] read?
A: 0.5 to 5 µM

Q: What does the source list for `COc1ccc(Cl)cc1-c1noc(C2CC23CCN(S(=O)(=O)NCc2ccccn2)CC3)n1` (racemic) [Example B11]?
A: EC50 [1]: 0.5 to 5 µM; EC50 [2]: 3.5 µM

Q: With `COc1ccc(Cl)cc1-c1noc(C2CC23CCN(C(=O)NCc2ccns2)CC3)n1` (racemic) [Example B12] as the compound, how does the EC50 [1] read?
A: 0.5 to 5 µM

Q: And the EC50 [2]?
A: 3.4 µM

Q: What does the source list for `COc1ccc(Cl)cc1-c1noc(C2CC23CCN(C(=O)NCc2ccccc2)CC3)n1` (racemic) [Example B13]?
A: EC50 [1]: 5 to 50 µM; EC50 [2]: 5.1 µM

Q: How did the EC50 [1] turn out when `COc1ccc(Cl)cc1-c1noc(C2CC23CCN(S(C)(=O)=O)CC3)n1` (racemic) [Example B14] was run?
A: 0.5 to 5 µM

Q: What about the EC50 [2] of the same compound?
A: 1.1 µM

Q: With `CNc1ncccc1-c1noc(C2CC23CCN(S(N)(=O)=O)CC3)n1` (racemic) [Example C1] as the compound, how does the EC50 [1] read?
A: 0.5 to 5 µM

Q: What about the EC50 [2] of the same compound?
A: 3.6 µM

Q: `NS(=O)(=O)N1CCC2(CC1)CC2c1nc(-c2ccnc(N3CCCC3)c2)no1` (racemic) [Example C2] was tested. Which EC50 [1] did it give?
A: 0.5 to 5 µM
